Assay results published in US20250262201A1, “COMPOUNDS AND METHODS USEFUL FOR STABILIZING PHENYLALANINE HYDROXYLASE MUTATIONS” (Agios Pharmaceuticals, Inc., priority 2022, published 2025).

What follows are compounds tested against T1, human PAH with the R408W mutation (Homo sapiens, UniProt P00439, R408W) (assay: Cell Based Phenylalanine Flux Assay). Settings: A375 cells expressing human R408W PAH; 24 hrs compound incubation; 13C-Tyrosine by LC-MS; average where tested multiple times; read-out: AC50.
T1 construct: expressed in transfected cells
T1 sequence (P00439 1-452 R408W): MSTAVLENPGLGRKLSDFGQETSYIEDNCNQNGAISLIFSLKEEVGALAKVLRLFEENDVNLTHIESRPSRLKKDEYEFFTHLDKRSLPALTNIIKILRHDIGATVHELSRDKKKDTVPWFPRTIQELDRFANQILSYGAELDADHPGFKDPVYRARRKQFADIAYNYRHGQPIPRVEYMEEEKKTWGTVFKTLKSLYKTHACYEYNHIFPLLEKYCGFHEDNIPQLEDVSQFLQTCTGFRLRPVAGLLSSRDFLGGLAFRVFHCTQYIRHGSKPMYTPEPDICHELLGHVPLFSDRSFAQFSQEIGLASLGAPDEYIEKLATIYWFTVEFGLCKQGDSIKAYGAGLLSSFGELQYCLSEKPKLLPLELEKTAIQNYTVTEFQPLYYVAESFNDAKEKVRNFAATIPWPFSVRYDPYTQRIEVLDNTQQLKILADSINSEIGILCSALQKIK
Protocol: Compounds were resuspended in DMSO, and 2-fold serial dilutions were performed to generate a 10-point dose curve. Compounds were added to plated cells in a total volume of 100 pal, and a final DMSO concentration of 0.5%. Each compound was tested in duplicate. Following compound addition, cells were placed in a 5% CO2, 37° C. tissue culture incubator for 24 hrs. After the incubation period, 20 μM sepiapterin and 800 μM 13C9,15N-Phenylalanine were added. After 4 hours, cell media was removed. An aliquot of 10 μl of cell media was combined with 200 μl of extraction buffer (80% acetonitrile/20% H2O) for each well. Determination of ^13C-Tyrosine concentration was assessed by liquid chromatography mass spectrometry.

| SMILES | AC50 |
| --- | --- |
| O=C(c1cnn2cc(Br)c(Cl)cc12)N1CCc2[nH]cnc2[C@H]1c1cc2ccccc2cn1 [Example 459, (R)-(6-bromo-5-chloropyrazolo[1,5-a]pyridin-3-yl)(4-(isoquinolin-3-yl)-6,7-dihydro-1H-imidazo[4,5-c]pyridin-5(4H)-yl)methanone] | < 500 nM |
| COc1ccc2c(C(=O)N3CCc4[nH]cnc4[C@H]3c3cc4ccccc4cn3)cnn2c1 [Example 460, (R)-(4-(isoquinolin-3-yl)-6,7-dihydro-1H-imidazo[4,5-c]pyridin-5(4H)-yl)(6-methoxypyrazolo[1,5-a]pyridin-3-yl)methanone] | < 500 nM |
| O=C(c1cnn2cc(N3CCOCC3)c(Cl)cc12)N1CCc2[nH]cnc2[C@H]1c1cc2ccccc2cn1 [Example 463, (R)-(5-chloro-6-morpholinopyrazolo[1,5-a]pyridin-3-yl)(4-(isoquinolin-3-yl)-6,7-dihydro-1H-imidazo[4,5-c]pyridin-5(4H)-yl)methanone] | < 500 nM |
| CN(C)CCc1ccc2c(C(=O)N3CCc4[nH]cnc4[C@H]3c3cc4ccccc4cn3)cnn2c1 [Example 468, (R)-(6-(2-(dimethylamino)ethyl)pyrazolo[1,5-a]pyridin-3-yl)(4-(isoquinolin-3-yl)-6,7-dihydro-1H-imidazo[4,5-c]pyridin-5(4H)-yl)methanone] | < 500 nM |
| CN(C)c1ccc2c(C(=O)N3CCc4[nH]cnc4[C@H]3c3cc4ccccc4cn3)cnn2c1 [Example 470, (R)-(6-(dimethylamino)pyrazolo[1,5-a]pyridin-3-yl)(4-(isoquinolin-3-yl)-6,7-dihydro-1H-imidazo[4,5-c]pyridin-5(4H)-yl)methanone] | < 500 nM |
| O=C(c1nnc(-c2ncccn2)o1)N1CCc2[nH]cnc2[C@H]1c1cc2ccccc2cn1 [Example 473, (R)-(4-(isoquinolin-3-yl)-6,7-dihydro-1H-imidazo[4,5-c]pyridin-5(4H)-yl)(5-(pyrimidin-2-yl)-1,3,4-oxadiazol-2-yl)methanone] | < 500 nM |
| O=C(c1cnn2cc(N3CCC(F)CC3)ccc12)N1CCc2[nH]cnc2[C@H]1c1cc2ccccc2cn1 [Example 474, (R)-(6-(4-fluoropiperidin-1-yl)pyrazolo[1,5-a]pyridin-3-yl)(4-(isoquinolin-3-yl)-6,7-dihydro-1H-imidazo[4,5-c]pyridin-5(4H)-yl)methanone] | 1000 to 5000 nM |
| O=C(c1cnn2cc(-c3cccnc3)ccc12)N1CCc2[nH]cnc2[C@H]1c1cc2ccccc2cn1 [Example 475, (R)-(4-(isoquinolin-3-yl)-6,7-dihydro-1H-imidazo[4,5-c]pyridin-5(4H)-yl)(6-(pyridin-3-yl)pyrazolo[1,5-a]pyridin-3-yl)methanone] | < 500 nM |
| O=C(c1cnn2cc(-c3ccncn3)ccc12)N1CCc2[nH]cnc2[C@H]1c1cc2ccccc2cn1 [Example 476, (R)-(4-(isoquinolin-3-yl)-6,7-dihydro-1H-imidazo[4,5-c]pyridin-5(4H)-yl)(6-(pyrimidin-4-yl)pyrazolo[1,5-a]pyridin-3-yl)methanone] | < 500 nM |
| O=C(c1cnn2cc(N3CCC(O)CC3)ccc12)N1CCc2[nH]cnc2[C@H]1c1cc2ccccc2cn1 [Example 478, (R)-(6-(4-hydroxypiperidin-1-yl)pyrazolo[1,5-a]pyridin-3-yl)(4-(isoquinolin-3-yl)-6,7-dihydro-1H-imidazo[4,5-c]pyridin-5(4H)-yl)methanone] | 500 to 1000 nM |
| Cc1ncccc1-c1ccc2c(C(=O)N3CCc4[nH]cnc4[C@H]3c3cc4ccccc4cn3)cnn2c1 [Example 480, (R)-(4-(isoquinolin-3-yl)-6,7-dihydro-1H-imidazo[4,5-c]pyridin-5(4H)-yl)(6-(2-methylpyridin-3-yl)pyrazolo[1,5-a]pyridin-3-yl)methanone] | < 500 nM |
| O=C(c1cnn2cc(-c3ncccc3F)ccc12)N1CCc2[nH]cnc2[C@H]1c1cc2ccccc2cn1 [Example 482, (R)-(6-(3-fluoropyridin-2-yl)pyrazolo[1,5-a]pyridin-3-yl)(4-(isoquinolin-3-yl)-6,7-dihydro-1H-imidazo[4,5-c]pyridin-5(4H)-yl)methanone] | < 500 nM |
| O=C(c1cnn2cc(CN3CCOCC3)ccc12)N1CCc2[nH]cnc2[C@H]1c1cc2ccccc2cn1 [Example 484, (R)-(4-(isoquinolin-3-yl)-6,7-dihydro-1H-imidazo[4,5-c]pyridin-5(4H)-yl)(6-(morpholinomethyl)pyrazolo[1,5-a]pyridin-3-yl)methanone] | < 500 nM |
| O=C(c1cnn2cc(-c3ccncc3)ccc12)N1CCc2[nH]cnc2[C@H]1c1cc2ccccc2cn1 [Example 486, (R)-(4-(isoquinolin-3-yl)-6,7-dihydro-1H-imidazo[4,5-c]pyridin-5(4H)-yl)(6-(pyridin-4-yl)pyrazolo[1,5-a]pyridin-3-yl)methanone] | < 500 nM |

Results, then the compound that gave them:

| AC50 | SMILES |
| --- | --- |
| < 500 nM | O=C(c1cnn2cc(-c3ccccn3)ccc12)N1CCc2[nH]cnc2[C@H]1c1cc2ccccc2cn1 [Example 461, (R)-(4-(isoquinolin-3-yl)-6,7-dihydro-1H-imidazo[4,5-c]pyridin-5(4H)-yl)(6-(pyridin-2-yl)pyrazolo[1,5-a]pyridin-3-yl)methanone] |
| < 500 nM | O=C(c1cnn2ccc(Cl)cc12)N1CCc2[nH]cnc2[C@H]1c1cc2ccccc2cn1 [Example 462, (R)-(5-chloropyrazolo[1,5-a]pyridin-3-yl)(4-(isoquinolin-3-yl)-6,7-dihydro-1H-imidazo[4,5-c]pyridin-5(4H)-yl)methanone] |
| < 500 nM | CN1CCN(c2cn3ncc(C(=O)N4CCc5[nH]cnc5[C@H]4c4cc5ccccc5cn4)c3cc2Cl)CC1 [Example 464, (R)-(5-chloro-6-(4-methylpiperazin-1-yl)pyrazolo[1,5-a]pyridin-3-yl)(4-(isoquinolin-3-yl)-6,7-dihydro-1H-imidazo[4,5-c]pyridin-5(4H)-yl)methanone] |
| 500 to 1000 nM | C[C@@H](O)c1nnc(C(=O)N2CCc3[nH]cnc3[C@H]2c2cc3ccccc3cn2)o1 [Example 465, (5-((R)-1-hydroxyethyl)-1,3,4-oxadiazol-2-yl)((R)-4-(isoquinolin-3-yl)-6,7-dihydro-1H-imidazo[4,5-c]pyridin-5(4H)-yl)methanone] |
| < 500 nM | Cc1ccc2c(C(=O)N3CCc4[nH]cnc4[C@H]3c3cc4ccccc4cn3)cnn2c1 [Example 466, (R)-(4-(isoquinolin-3-yl)-6,7-dihydro-1H-imidazo[4,5-c]pyridin-5(4H)-yl)(6-methylpyrazolo[1,5-a]pyridin-3-yl)methanone] |
| < 500 nM | O=C(c1cnn2cc(Cl)ccc12)N1CCc2[nH]cnc2[C@H]1c1cc2ccccc2cn1 [Example 467, (R)-(6-chloropyrazolo[1,5-a]pyridin-3-yl)(4-(isoquinolin-3-yl)-6,7-dihydro-1H-imidazo[4,5-c]pyridin-5(4H)-yl)methanone] |
| < 500 nM | O=C(c1nnc(-c2cnccn2)o1)N1CCc2[nH]cnc2[C@H]1c1cc2ccccc2cn1 [Example 469, (R)-(4-(isoquinolin-3-yl)-6,7-dihydro-1H-imidazo[4,5-c]pyridin-5(4H)-yl)(5-(pyrazin-2-yl)-1,3,4-oxadiazol-2-yl)methanone] |
| < 500 nM | O=C(c1nnc(-c2ccncn2)o1)N1CCc2[nH]cnc2[C@H]1c1cc2ccccc2cn1 [Example 471, (R)-(4-(isoquinolin-3-yl)-6,7-dihydro-1H-imidazo[4,5-c]pyridin-5(4H)-yl)(5-(pyrimidin-4-yl)-1,3,4-oxadiazol-2-yl)methanone] |
| < 500 nM | Cc1cc(-c2nnc(C(=O)N3CCc4[nH]cnc4[C@H]3c3cc4ccccc4cn3)o2)nn1C [Example 472, (R)-(5-(1,5-dimethyl-1H-pyrazol-3-yl)-1,3,4-oxadiazol-2-yl)(4-(isoquinolin-3-yl)-6,7-dihydro-1H-imidazo[4,5-c]pyridin-5(4H)-yl)methanone] |
| < 500 nM | O=C(c1cnn2cc(-c3cnccn3)ccc12)N1CCc2[nH]cnc2[C@H]1c1cc2ccccc2cn1 [Example 477, (R)-(4-(isoquinolin-3-yl)-6,7-dihydro-1H-imidazo[4,5-c]pyridin-5(4H)-yl)(6-(pyrazin-2-yl)pyrazolo[1,5-a]pyridin-3-yl)methanone] |
| < 500 nM | Cc1cccc(-c2ccc3c(C(=O)N4CCc5[nH]cnc5[C@H]4c4cc5ccccc5cn4)cnn3c2)n1 [Example 479, (R)-(4-(isoquinolin-3-yl)-6,7-dihydro-1H-imidazo[4,5-c]pyridin-5(4H)-yl)(6-(6-methylpyridin-2-yl)pyrazolo[1,5-a]pyridin-3-yl)methanone] |
| < 500 nM | Cn1ccc(-c2ccc3c(C(=O)N4CCc5[nH]cnc5[C@H]4c4cc5ccccc5cn4)cnn3c2)n1 [Example 481, (R)-(4-(isoquinolin-3-yl)-6,7-dihydro-1H-imidazo[4,5-c]pyridin-5(4H)-yl)(6-(1-methyl-1H-pyrazol-3-yl)pyrazolo[1,5-a]pyridin-3-yl)methanone] |
| < 500 nM | O=C(c1cnn2cc(-c3ncccn3)ccc12)N1CCc2[nH]cnc2[C@H]1c1cc2ccccc2cn1 [Example 483, (R)-(4-(isoquinolin-3-yl)-6,7-dihydro-1H-imidazo[4,5-c]pyridin-5(4H)-yl)(6-(pyrimidin-2-yl)pyrazolo[1,5-a]pyridin-3-yl)methanone] |
| < 500 nM | O=C(c1cnn2cc(-c3ccccc3)ccc12)N1CCc2[nH]cnc2[C@H]1c1cc2ccccc2cn1 [Example 485, (R)-(4-(isoquinolin-3-yl)-6,7-dihydro-1H-imidazo[4,5-c]pyridin-5(4H)-yl)(6-phenylpyrazolo[1,5-a]pyridin-3-yl)methanone] |
